From US11267826B2, “Penicillin-binding protein inhibitors” (priority 2017, dated 2022) come the findings set out here.

The structures appear in SMILES notation.

One test relates to E. coli K12 PBP1a/b. As to the kind of experiment: Bocillin FL competition binding assay, PBP1a/1b combined. Conditions: 15 min pre-incubation, PBP 1a/1b combined. Set-up: species or system Escherichia coli K12. An outline of the steps: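 E. coli K12 membrane extracts (100 µg protein) pre-incubated 15 min with compound (0.005–2,480 µg/mL) in pH 7 phosphate/350 mM NaCl, then labelled with Bocillin FL 30 min at 35°C; SDS-PAGE fluorescence (ex 450/em 520 nm), μg/mL reported. PBP1a/1b unresolved, reported combined.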

Test [1] relates to hyper-permeable E. coli 901C. As to the kind of experiment: Broth microdilution MIC assay, hyper-permeable E. coli. The class given is cell-based. Conditions: Escherichia coli, read-out: E. coli 901C MIC. In a few lines:
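Growth inhibition is measured by CLSI broth microdilution. Log-phase bacteria (5×10^5 CFU/mL starting density) are incubated with 2-fold compound dilutions in cation-supplemented MH broth for 16-20 hours at 37° C, and the MIC is scored visually.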
A general note: Broth dilution looks for growth in wells or tubes with falling amounts of substance.

The test system of test [2] is E. coli DH5a harboring CTX-M15. As to the kind of experiment: Broth microdilution MIC, engineered E. coli expressing CTX-M15. The class given is cell-based. Particulars: Escherichia coli, read-out: MIC, β-lactamase CTXM. How it is done:
(§1) To determine the ability of test compounds to potentiate the inhibition of the growth of bacterial strains, classic cell based broth microdilution MIC assays were employed. MIC assays are performed according to CLSI methods except where otherwise noted (CLSI, 2011 and CLSI, 2009). The reference strain S. aureus ATCC 29213 and the hyper-permeable E. coli 901C were used to determine the ability of the PBP compounds to inhibit bacterial growth. Briefly, cryo-preserved bacterial cultures of clinical strains are streaked for isolation on appropriate agar medium, in this case Mueller Hinton II agar. Following incubation to allow formation of colonies these plates are sealed with parafilm and stored refrigerated for up to two weeks. For preparation of assay inocula and to ensure low variability, at least 5 colonies are picked from the agar plates with an inoculating loop and aseptically transferred to a culture tube containing 3 mL of Mueller-Hinton Broth (supplemented with divalent cations to required levels based on Manufacturers' certification). The broth culture is grown for 3-5 hours at 37° C. with shaking at 200 rpm. Meanwhile, 2-fold serial dilutions of test compounds are conducted in a 96 well plate with a final volume of 75 μL per well at 2-fold the final desired concentration. After the dilution plates are set up the growing cultures are then diluted in a cuvette containing MH II broth and the optical density is measured at 600 nm. Inocula are diluted such that 75 μL of this culture in Mueller-Hinton Broth results in a starting bacterial concentration of 5×10^5 CFU/mL when added to the dilution plates. The plates are incubated 16-20 hours at 37° C. The MIC is read visually as the lowest concentration well with no bacterial growth.
(§2) To determine if test compounds were affected by various known β-lactamases, the inhibition of the growth of engineered strains of Escherichia coli harboring select single β-lactamases were tested. […]

In test [3] the test system is E. coli DH5a harboring TEM-24. As to the kind of experiment: Broth microdilution MIC, engineered E. coli expressing TEM-24. The class given is cell-based. Particulars: Escherichia coli, read-out: MIC, β-lactamase TEM. The method, then:
as §1, §2

Test [4] relates to engineered strains of Escherichia coli harboring select single β-lactamases. As to the kind of experiment: MIC across the panel of engineered E. coli strains harboring select single β-lactamases. Conditions: strains expressing β-lactamases compared with control strain, result in words. Format: cell-based. How it is done: To determine if test compounds were affected by various known β-lactamases, the inhibition of the growth of engineered strains of Escherichia coli harboring select single β-lactamases were tested. These strains were constructed by cloning the gene encoding the particular β-lactamase into the NdeI and BamHI restriction endonuclease sites of plasmid pLBII, placing the gene(s) under the control of the Lac promoter.

For test [5], the system named is E. coli DH5a harboring NDM-1. As to the kind of experiment: Broth microdilution MIC, engineered E. coli expressing NDM-1. Format: cell-based. Conditions: Escherichia coli, read-out: MIC, β-lactamase NDM. How it is done:
as §1, §2

In general, MIC refers to the smallest concentration in the dilution series that meets the test's criterion for growth inhibition.

As to `Nc1nc(/C(=N/O)C(=O)N[C@H]2Cc3cccc(C(=O)O)c3OB2O)cs1` [Example 6, (R,Z)-3-(2-(2-aminothiazol-4-yl)-2-(hydroxyimino)acetamido)-2-hydroxy-3,4-dihydro-2H-benzo[e][1,2]oxaborinine-8-carboxylic Acid], the “E. coli K12 PBP1a/b Potency” value in the test on E. coli K12 PBP1a/b is given as “C (C represents a potency of <64 μg/mL)”. The MIC in test [1] is < 64 µg/mL; in test [2], 16 µg/mL; in test [3], 16 µg/mL; in test [5] it was 16 µg/mL. The “Effect of expressed β-lactamase on MIC” value in test [4] is listed as “the same MIC values in strains regardless of the β-lactamase expressed”.
